Experimental data reported in publication PMC11995724, “Antibiotic target discovery by integrated phenotypic and activity-based profiling of electrophilic fragments” (Cell chemical biology, 2025).
Structures can show the parent of a compound that is named as a salt.

Test: in vitro
Conditions: human, hek293t cells

Row | SMILES | viability at 48 h, 25 µM [%]
1 | c1nc(N2CCSSCC2)c2c3c(sc2n1)CCCC3 [10-M22, 3-(1,2,5-dithiazepan-5-yl)-8-thia-4,6-diazatricyclo[7.4.0.0,2,7]trideca-1(9),2,4,6-tetraene] | 78.3
2 | CC(=O)NCCc1ccc(C(=O)CCl)cc1 [10-N03, N-{2-[4-(2-chloroacetyl)phenyl]ethyl}acetamide] | 85.6
3 | Cn1c(-c2ccccc2)c(C(=O)CCl)c2ccccc21 [10-N04, 2-chloro-1-(1-methyl-2-phenyl-1H-indol-3-yl)ethan-1-one] | 1.67
4 | COc1ccc(C(=O)CCl)c2c1C(=O)CO2 [10-N05, 7-(2-chloroacetyl)-4-methoxy-2,3-dihydro-1-benzofuran-3-one] | 92.2
5 | CC(C)CC(=O)Nc1ccc(C(=O)CCl)cc1 [10-N06, N-[4-(2-chloroacetyl)phenyl]-3-methylbutanamide] | 11.7
6 | Cc1ccc(N2C(=O)C=CC2=O)c(C)c1 [10-N07, 1-(2,4-dimethylphenyl)-2,5-dihydro-1H-pyrrole-2,5-dione] | 102
7 | Cc1nc(C)c(C(=O)CCl)o1 [10-N08, 2-chloro-1-(2,4-dimethyl-1,3-oxazol-5-yl)ethan-1-one] | 76.1
8 | O=[N+]([O-])c1ccccc1S(=O)(=O)N1CCSSCC1 [10-N09, 5-(2-nitrobenzenesulfonyl)-1,2,5-dithiazepane] | 117
9 | N#CC(C(=O)CCl)=C1NC2=C(CCc3ccccc32)S1 [10-N10, 4-chloro-2-{1H,2H,4H,5H-naphtho[1,2-d][1,3]thiazol-2-ylidene}-3-oxobutanenitrile] | 12.3
10 | CCOC(=O)C(C#N)=Cc1ccc(N2C(=O)C=CC2=O)cc1 [10-N11, ethyl 2-cyano-3-[4-(2,5-dioxo-2,5-dihydro-1H-pyrrol-1-yl)phenyl]prop-2-enoate] | 93.1
11 | COCCn1c(N)c(C(=O)CCl)c(=O)[nH]c1=O [10-N12, 6-amino-5-(2-chloroacetyl)-1-(2-methoxyethyl)-1,2,3,4-tetrahydropyrimidine-2,4-dione] | 103
12 | Cc1ccc(N2C(=O)C=CC2=O)c([N+](=O)[O-])c1 [10-N13, 1-(4-methyl-2-nitrophenyl)-2,5-dihydro-1H-pyrrole-2,5-dione] | 133
13 | Cc1cc(C(=O)CCl)c(C)n1-c1ccc(S(N)(=O)=O)cc1 [10-N14, 4-[3-(2-chloroacetyl)-2,5-dimethyl-1H-pyrrol-1-yl]benzene-1-sulfonamide] | 85.8
14 | COc1ccc(OC)c(N2C(=O)C=CC2=O)c1 [10-N15, 1-(2,5-dimethoxyphenyl)-2,5-dihydro-1H-pyrrole-2,5-dione] | 110
15 | Cc1cc(C(=O)CCl)c(C)n1CCc1ccc(Cl)cc1 [10-N16, 2-chloro-1-{1-[2-(4-chlorophenyl)ethyl]-2,5-dimethyl-1H-pyrrol-3-yl}ethan-1-one] | 0.625
16 | Cc1cc(C(=O)CCl)c(C)n1Cc1ccc(F)cc1 [10-N17, 2-chloro-1-{1-[(4-fluorophenyl)methyl]-2,5-dimethyl-1H-pyrrol-3-yl}ethan-1-one] | 6.45
17 | Cc1cc(C(=O)CCl)c(C)n1-c1cccc(Cl)c1 [10-N18, 2-chloro-1-[1-(3-chlorophenyl)-2,5-dimethyl-1H-pyrrol-3-yl]ethan-1-one] | 0.68
18 | CCn1cc(S(=O)(=O)N2CCSSCC2)cn1 [10-N19, 5-[(1-ethyl-1H-pyrazol-4-yl)sulfonyl]-1,2,5-dithiazepane] | 109
19 | Cc1cc(C(=O)CCl)c(C)n1-c1ccc(C(C)(C)C)cc1 [10-N20, 1-[1-(4-tert-butylphenyl)-2,5-dimethyl-1H-pyrrol-3-yl]-2-chloroethan-1-one] | 0.606
20 | CC1(C)C(=O)Nc2ccc(C(=O)CCl)cc21 [10-N21, 5-(2-chloroacetyl)-3,3-dimethyl-2,3-dihydro-1H-indol-2-one] | 73.1
21 | Cn1cc(C(=O)CCl)cc1C(=O)C(Cl)(Cl)Cl [10-N22, 2,2,2-trichloro-1-[4-(2-chloroacetyl)-1-methyl-1H-pyrrol-2-yl]ethan-1-one] | 1.4
22 | Cc1cc(C(=O)CCl)c(F)cc1F [10-O03, 2-chloro-1-(2,4-difluoro-5-methylphenyl)ethan-1-one] | 2.01
23 | CC(Cl)C(=O)c1ccc(Cl)cc1 (stereo not shown) [10-O04, 2-chloro-1-(4-chlorophenyl)propan-1-one] | 106
24 | CC(=O)NCCc1cc(C(=O)CCl)ccc1F [10-O05, N-{2-[5-(2-chloroacetyl)-2-fluorophenyl]ethyl}acetamide] | 37.8
25 | CCCC(=O)Nc1ccc(C(=O)C(C)Cl)cc1 (stereo not shown) [10-O06, N-[4-(2-chloropropanoyl)phenyl]butanamide] | 85.1
26 | O=C1C=CC(=O)N1c1cccc(O)c1 [10-O07, 1-(3-hydroxyphenyl)-2,5-dihydro-1H-pyrrole-2,5-dione] | 68.4
27 | N#CC(C(=O)CCl)=C1Nc2cc(Cl)ccc2S1 [10-O08, 4-chloro-2-(5-chloro-2,3-dihydro-1,3-benzothiazol-2-ylidene)-3-oxobutanenitrile] | 101
28 | O=C(CCl)c1ccoc1 [10-O09, 2-chloro-1-(furan-3-yl)ethan-1-one] | 76.8

Row | SMILES | viability at 48 h, 25 µM [%]
29 | COc1ccccc1N1C(=O)C=CC1=O [10-O10, 1-(2-methoxyphenyl)-2,5-dihydro-1H-pyrrole-2,5-dione] | 57.5
30 | O=C(CCl)c1c[nH]c2ccc(F)cc12 [10-O11, 2-chloro-1-(5-fluoro-1H-indol-3-yl)ethan-1-one] | 0.58
31 | CC(=O)Nc1ccc(C(=O)CCl)cc1 [10-O12, N-[4-(2-chloroacetyl)phenyl]acetamide] | 12.6
32 | Cc1ccc(CC(=O)CCl)cc1 [10-O13, 1-chloro-3-(4-methylphenyl)propan-2-one] | 67.6
33 | Cc1ccc([N+](=O)[O-])cc1N1C(=O)C=CC1=O [10-O14, 1-(2-methyl-5-nitrophenyl)-2,5-dihydro-1H-pyrrole-2,5-dione] | 67.2
34 | O=C(CCl)Cc1c(F)cccc1F [10-O15, 1-chloro-3-(2,6-difluorophenyl)propan-2-one] | 95.8
35 | Cc1cc(C(=O)CCl)c(C)n1CC(N)=O [10-O16, 2-[3-(2-chloroacetyl)-2,5-dimethyl-1H-pyrrol-1-yl]acetamide] | 108
36 | O=C(CCl)Cc1ccc(F)c(F)c1 [10-O17, 1-chloro-3-(3,4-difluorophenyl)propan-2-one] | 28
37 | Cc1nc(CNC(=O)N2CCSSCC2)cs1 [10-O18, N-[(2-methyl-1,3-thiazol-4-yl)methyl]-1,2,5-dithiazepane-5-carboxamide] | 112
38 | O=C1C=CC(=O)N1C1CNC1 [10-O19, 1-(azetidin-3-yl)-2,5-dihydro-1H-pyrrole-2,5-dione hydrochloride] | 83.3
39 | O=C1CCc2cc(C(=O)CCl)c(F)cc2N1 [10-O20, 6-(2-chloroacetyl)-7-fluoro-1,2,3,4-tetrahydroquinolin-2-one] | 11.9
40 | c1ccc(CSSCc2ccccc2)cc1 [10-O21, [(benzyldisulfanyl)methyl]benzene] | 100
41 | O=C(Nc1nccs1)N1CCSSCC1 [10-O22, N-(1,3-thiazol-2-yl)-1,2,5-dithiazepane-5-carboxamide] | 113
42 | CC(=O)NCCc1ccc(C(=O)CCl)s1 [10-P03, N-{2-[5-(2-chloroacetyl)thiophen-2-yl]ethyl}acetamide] | 64.9
43 | O=C(CCl)c1c(-c2ccc(F)cc2)[nH]c2ccccc12 [10-P04, 2-chloro-1-[2-(4-fluorophenyl)-1H-indol-3-yl]ethan-1-one] | 4.16
44 | Cn1c(N)c(N2C(=O)C=CC2=O)c(=O)[nH]c1=O [10-P05, 6-amino-5-(2,5-dioxo-2,5-dihydro-1H-pyrrol-1-yl)-1-methyl-1,2,3,4-tetrahydropyrimidine-2,4-dione] | 124
45 | Nc1c(C(=O)CCl)c(=O)[nH]c(=O)n1C1CC1 [10-P06, 6-amino-5-(2-chloroacetyl)-1-cyclopropyl-1,2,3,4-tetrahydropyrimidine-2,4-dione] | 111
46 | O=C1C=CC(=O)N1c1cnccn1 [10-P07, 1-(pyrazin-2-yl)-2,5-dihydro-1H-pyrrole-2,5-dione] | 103
47 | CCn1nc(C)c(C(=O)CCl)n1 [10-P08, 2-chloro-1-(2-ethyl-5-methyl-2H-1,2,3-triazol-4-yl)ethan-1-one] | 27.2
48 | O=C(Nc1cccc(-c2nnco2)c1)N1CCSSCC1 [10-P09, N-[3-(1,3,4-oxadiazol-2-yl)phenyl]-1,2,5-dithiazepane-5-carboxamide] | 116
49 | CC(C)(C)C(=O)NCc1ccc(C(=O)CCl)s1 [10-P10, N-{[5-(2-chloroacetyl)thiophen-2-yl]methyl}-2,2-dimethylpropanamide] | 12.3
50 | O=C1C=CC(=O)N1c1ccc(OC(F)F)cc1 [10-P11, 1-[4-(difluoromethoxy)phenyl]-2,5-dihydro-1H-pyrrole-2,5-dione] | 102
51 | CC(Cl)C(=O)c1ccc2c(c1)NC(=O)CO2 (stereo not shown) [10-P12, 6-(2-chloropropanoyl)-3,4-dihydro-2H-1,4-benzoxazin-3-one] | 105
52 | COc1ccc([N+](=O)[O-])cc1N1C(=O)C=CC1=O [10-P13, 1-(2-methoxy-5-nitrophenyl)-2,5-dihydro-1H-pyrrole-2,5-dione] | 102
53 | N#CC(C(=O)CCl)=C1NC(=O)c2ccccc2N1 [10-P14, 4-chloro-3-oxo-2-(4-oxo-1,2,3,4-tetrahydroquinazolin-2-ylidene)butanenitrile] | 110
54 | O=C1C=CC(=O)N1c1cccc([N+](=O)[O-])c1 [10-P15, 1-(3-nitrophenyl)-2,5-dihydro-1H-pyrrole-2,5-dione] | 92.8
55 | Cc1cc(C(=O)CCl)c(C)n1Cc1ccccc1Cl [10-P16, 2-chloro-1-{1-[(2-chlorophenyl)methyl]-2,5-dimethyl-1H-pyrrol-3-yl}ethan-1-one] | 0.942
